Here are results for 25 compounds from EP2758401B1 (Bayer Intellectual Property GmbH, priority 2011, dated 2013).

Structures are written as SMILES.

The target of experiment [1] is T1, MKNK1 (Homo sapiens, UniProt Q9BUB5, T385D).
T1 construct: GST (N); purchased Carna Biosciences 02-145; host or cells: insect cells (baculovirus expression system)
Description: MKNK1 kinase high ATP assay (TR-FRET). It counts as biochemical. The note with it: ATP final conc. 2 mM; 15 min pre-incubation; reaction time 30 min at 22°C. On the procedure: MKNK1-inhibitory activity at high ATP of compounds of the present invention after their preincubation with MKNK1 was quantified employing the TR-FRET-based MKNK1 high ATP assay as described in the following paragraphs.
As substrate for the kinase reaction the biotinylated peptide biotin-Ahx-[…] (C-terminus in amide form) was used, which can be purchased e.g. from the company Biosyntan (Berlin-Buch, Germany).
For the assay 50 nL of a 100fold concentrated solution of the test compound in DMSO was pipetted into a black low volume 384well microtiter plate (Greiner Bio-One, Frickenhausen, Germany), 2 µL of a solution of MKNK1 in aqueous assay buffer [50 mM HEPES pH 7.5, 5 mM magnesium chloride, 1.0 mM dithiothreitol, 0.005% (v/v) Nonidet-P40 (Sigma)] was added and the mixture was incubated for 15 min at 22°C to allow pre-binding of the test compounds to the enzyme before the start of the kinase reaction. Then the kinase reaction was started by the addition of 3 µL of a solution of adenosine-tri-phosphate (ATP, 3.3 mM => final conc. in the 5 µL assay volume is 2 mM) and substrate (0.1 µM => final conc. in the 5 µL assay volume is 0.06 µM) in assay buffer and the resulting mixture was incubated for a reaction time of 30 min at 22°C. The concentration of MKNK1 was adjusted depending of the activity of the enzyme lot and was chosen appropriate to have the assay in the linear range, typical concentrations were in the range of 0.003 µg/mL. The reaction was stopped by the addition of 5 µL of a solution of TR-FRET detection reagents (5 nM streptavidine-XL665 [Cisbio Bioassays, Codolet, France] and 1 nM anti-ribosomal protein S6 (pSer236)-antibody from Invitrogen [# 44921G] and 1 nM LANCE EU-W1024 labeled ProteinG [Perkin-Elmer, product no. AD0071]) in an aqueous EDTA-solution (100 mM EDTA, 0.1 % (w/v) bovine serum albumin in 50 mM HEPES pH 7.5).
(§1) The resulting mixture was incubated for 1 h at 22°C to allow the formation of complex between the phosphorylated biotinylated peptide and the detection reagents. Subsequently the amount of phosphorylated substrate was evaluated by measurement of the resonance energy transfer from the Eu-chelate to the streptavidine-XL. Therefore, the fluorescence emissions at 620 nm and 665 nm after excitation at 350 nm were measured in a TR-FRET reader, e.g. a Rubystar (BMG Labtechnologies, Offenburg, Germany) or a Viewlux (Perkin-Elmer). The ratio of the emissions at 665 nm and at […] was taken as the measure for the amount of phosphorylated substrate. The data were normalised (enzyme reaction without inhibitor = 0 % inhibition, all other assay components but no enzyme = 100 % inhibition).

The target in experiment [2] is T1, MKNK1. The experiment is described as follows: MKNK1 kinase assay (TR-FRET). It counts as biochemical. The note with it: ATP final conc. 10 µM; 15 min pre-incubation; reaction time 45 min at 22°C. On the procedure:
MKNK1-inhibitory activity of compounds of the present invention was quantified employing the MKNK1 TR-FRET assay as described in the following paragraphs.
As substrate for the kinase reaction the biotinylated peptide biotin-Ahx-[…] (C-terminus in amide form) was used which can be purchased e.g. form the company Biosyntan (Berlin-Buch, Germany).
For the assay 50 nL of a 100fold concentrated solution of the test compound in DMSO was pipetted into a black low volume 384well microtiter plate (Greiner Bio-One, Frickenhausen, Germany), 2 µL of a solution of MKNK1 in aqueous assay buffer [50 mM HEPES pH 7.5, 5 mM magnesium chloride, 1.0 mM dithiothreitol, 0.005% (v/v) Nonidet-P40 (Sigma)] was added and the mixture was incubated for 15 min at 22°C to allow pre-binding of the test compounds to the enzyme before the start of the kinase reaction. Then the kinase reaction was started by the addition of 3 µL of a solution of adenosine-tri-phosphate (ATP, 16.7 µM => final conc. in the 5 µL assay volume is 10 µM) and substrate (0.1 µM => final conc. in the 5 µL assay volume is 0.06 µM) in assay buffer and the resulting mixture was incubated for a reaction time of 45 min at 22°C.
as §1, with “inhibition). […] Table 1: MKNK1 IC50s” for “inhibition).”

T1 sequence (Q9BUB5 1-424 isoform Q9BUB5-2 T344D): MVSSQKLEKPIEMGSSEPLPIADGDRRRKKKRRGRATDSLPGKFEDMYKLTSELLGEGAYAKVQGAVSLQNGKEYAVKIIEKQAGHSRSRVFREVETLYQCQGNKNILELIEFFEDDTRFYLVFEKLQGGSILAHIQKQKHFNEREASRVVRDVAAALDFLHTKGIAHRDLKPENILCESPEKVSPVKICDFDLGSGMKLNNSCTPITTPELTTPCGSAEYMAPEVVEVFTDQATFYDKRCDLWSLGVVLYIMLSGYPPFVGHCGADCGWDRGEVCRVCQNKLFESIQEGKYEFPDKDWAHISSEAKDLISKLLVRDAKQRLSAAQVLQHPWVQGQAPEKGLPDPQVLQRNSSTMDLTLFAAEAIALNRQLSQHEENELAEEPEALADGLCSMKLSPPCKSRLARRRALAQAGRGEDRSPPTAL

Take `NC1(COc2ccc3ncc(-c4cc5ccccc5o4)n3n2)CCC1` [Example 27, 1-({[3-(1-Benzofuran-2-yl)imidazo[1,2-b]pyridazin-6-yl]oxy}methyl)cyclobutan-amine]: at MKNK1 [1], the IC50 is 29 nM. This counts as double-digit nanomolar.

As to `C=CCCC(CN)Oc1ccc2ncc(-c3cc4ccccc4o3)n2n1` (centres unmarked) [Example 28, 2-{[3-(1-Benzofuran-2-yl)imidazo[1,2-b]pyridazin-6-yl]oxy}hex-5-en-1-amine], on MKNK1 [1], inhibition was half-maximal at 45 nM (IC50).

On to `COc1cccc2oc(-c3cnc4ccc(OCCN)nn34)cc12` [Example 5, 2-{[3-(4-Methoxy-1-benzofuran-2-yl)imidazo[1,2-b]pyridazin-6-yl]oxy}ethan-amine], for which the IC50 was determined as 6 nM on MKNK1 [2] and 18 nM at MKNK1 [1].

As to `N[C@H](COc1ccc2ncc(-c3cc4ccccc4o3)n2n1)c1ccccc1` [Example 17, (1S)-2-{[3-(1-Benzofuran-2-yl)imidazo[1,2-b]pyridazin-6-yl]oxy}-1-phenylethan-amine], the values for the half-maximal inhibitory concentration (IC50) against MKNK1 [2] and against MKNK1 [1] were 6 nM and 10 nM, respectively.

For the compound `NCC(CN)Oc1ccc2ncc(-c3cc4ccccc4o3)n2n1` [Example 34, 2-{[3-(1-Benzofuran-2-yl)imidazo[1,2-b]pyridazin-6-yl]oxy}propane-1,3-diamine], the half-maximal inhibitory concentration (IC50) on MKNK1 [2] is 39 nM; at MKNK1 [1], 92 nM.

Consider `CC(C)Oc1cccc(C(CN)Oc2ccc3ncc(-c4cc5ccccc5o4)n3n2)c1` (centres unmarked) [Example 58, 2-{[3-(1-benzofuran-2-yl)-imidazo-[1,2-b]-pyridazin-6-yl]oxy}-2-(3-iso-propoxyphenyl)-ethanamine], for which, at MKNK1 [2], the IC50 came out at 20 nM.

For the compound `N[C@@H](COc1ccc2ncc(-c3cc4ccccc4o3)n2n1)c1ccccc1` [Example 18, (1R)-2-{[3-(1-Benzofuran-2-yl)imidazo[1,2-b]pyridazin-6-yl]oxy}-1-phenyl-ethanamine], the IC50 came out at 22 nM on MKNK1 [2] and 33 nM against MKNK1 [1].

With `NCC(Oc1ccc2ncc(-c3cc4ccccc4o3)n2n1)c1ccccn1` (centres unmarked) [Example 57, 2-{[3-(1-benzofuran-2-yl)-imidazo-[1,2-b]-pyridazin-6-yl]oxy}-2-(pyridin-2-yl)-ethanamine], at MKNK1 [2], the half-maximal inhibitory concentration (IC50) is 94 nM.

Take `N[C@H]1C[C@@H](Oc2ccc3ncc(-c4cc5ccccc5o4)n3n2)C1` [Example 3, cis-3-{[3-(1-Benzofuran-2-yl)imidazo[1,2-b]pyridazin-6-yl]oxy}cyclobutan-amine]: the IC50 on MKNK1 [2] turned out to be 4 nM; on MKNK1 [1], 17 nM.

Take `N[C@H]1C[C@H](Oc2ccc3ncc(-c4cc5ccccc5o4)n3n2)C1` [Example 2, trans-3-{[3-(1-Benzofuran-2-yl)imidazo[1,2-b]pyridazin-6-yl]oxy}cyclobutan-amine]: the figures for the IC50 at MKNK1 [2] and on MKNK1 [1] were 5 nM and 6 nM, respectively.

For the compound `NCC(COc1ccc2ncc(-c3cc4ccccc4o3)n2n1)c1ccccc1` (centres unmarked) [Example 52, 3-{[3-(1-Benzofuran-2-yl)imidazo[1,2-b]pyridazin-6-yl]oxy}-2-phenylpropan-1-amine], the IC50 against MKNK1 [2] worked out at 17 nM; against MKNK1 [1], 30 nM.

In turn, `NCC(Oc1ccc2ncc(-c3cc4ccccc4o3)n2n1)c1ccc(F)cc1F` (centres unmarked) [Example 60, 2-{[3-(1-benzofuran-2-yl)-imidazo-[1,2-b]-pyridazin-6-yl]oxy}-2-(2,4-difluorophenyl)-ethanamine] displayed a half-inhibitory concentration (IC50) against MKNK1 [2] of 39 nM.

On MKNK1 [2], `NC[C@H](Oc1ccc2ncc(-c3cc4ccccc4o3)n2n1)c1cccnc1` [Example 55, (2R)-2-{[3-(1-benzofuran-2-yl)imidazo[1,2-b]pyridazin-6-yl]oxy}-2-(pyridin-3-yl)ethanamine] gave an IC50 of 16 nM.

Consider `NCC(Cc1ccncc1)Oc1ccc2ncc(-c3cc4ccccc4o3)n2n1` (centres unmarked) [Example 54, 2-{[3-(1-Benzofuran-2-yl)imidazo[1,2-b]pyridazin-6-yl]oxy}-3-(pyridin-4-yl)-propan-1-amine], for which inhibition against MKNK1 [1] was half-maximal at 19 nM (IC50). In other words, the double-digit nanomolar range.

The compound `NCCOCCOc1ccc2ncc(-c3cc4ccccc4o3)n2n1` [Example 21, 2-(2-{[3-(1-Benzofuran-2-yl)imidazo[1,2-b]pyridazin-6-yl]oxy}ethoxy)ethan-amine] gave an IC50 on MKNK1 [1] of 14 nM.

In the case of `NC(COc1ccc2ncc(-c3cc4ccccc4o3)n2n1)C1CCOCC1` (centres unmarked) [Example 32, 2-{[3-(1-Benzofuran-2-yl)imidazo[1,2-b]pyridazin-6-yl]oxy}-1-(tetrahydro-2H-pyran-4-yl)ethanamine], the IC50 on MKNK1 [1] is 79 nM.

For the compound `NCC(Oc1ccc2ncc(-c3cc4ccccc4o3)n2n1)c1cccc(C(F)(F)F)c1` (centres unmarked) [Example 59, 2-{[3-(1-benzofuran-2-yl)-imidazo-[1,2-b]-pyridazin-6-yl]oxy}-2-[3-(trifluoromethyl)-phenyl]-ethanamine], on MKNK1 [2], inhibition was half-maximal at 37 nM (IC50).

Regarding `NCC(Cc1ccc(F)cc1)Oc1ccc2ncc(-c3cc4ccccc4o3)n2n1` (centres unmarked) [Example 53, 2-{[3-(1-Benzofuran-2-yl)imidazo[1,2-b]pyridazin-6-yl]oxy}-3-(4-fluorophenyl)-propan-1-amine], the midpoint of inhibition against MKNK1 [1], the IC50, lay at 46 nM. This lies in the double-digit nanomolar range.

In turn, `NCCC(Oc1ccc2ncc(-c3cc4ccccc4o3)n2n1)c1ccc(F)cc1` (centres unmarked) [Example 64] registered an IC50 on MKNK1 [2] of 57 nM.

In the case of `N[C@H](COc1ccc2ncc(-c3cc4ccccc4o3)n2n1)c1ccc(Cl)cc1` [Example 62, (1S)-2-{[3-(1-benzofuran-2-yl)imidazo[1,2-b]pyridazin-6-yl]oxy}-1-(4-chlorophenyl)ethanamine], on MKNK1 [2], half-maximal inhibition (IC50) was put at 31 nM.

On MKNK1 [2], `NC(COc1ccc2ncc(-c3cc4ccccc4o3)n2n1)c1cccnc1` (centres unmarked) [Example 63, 2-{[3-(1-benzofuran-2-yl)imidazo[1,2-b]pyridazin-6-yl]oxy}-1-(pyridin-3-yl)ethanamine] returned a 50% inhibitory concentration (IC50) of 54 nM.

Consider `NCC(Oc1ccc2ncc(-c3cc4ccccc4o3)n2n1)c1ccc(F)cc1` (centres unmarked) [Example 56, 2-{[3-(1-benzofuran-2-yl)-imidazo-[1,2-b]-pyridazin-6-yl]oxy}-2-(4-fluorophenyl)-ethanamine], for which the IC50 at MKNK1 [2] was 40 nM.

The compound `N[C@@H]1CCCC[C@H]1Oc1ccc2ncc(-c3cc4ccccc4o3)n2n1` [Example 23, (1R,2R)-2-{[3-(1-Benzofuran-2-yl)imidazo[1,2-b]pyridazin-6-yl]oxy}cyclohexan-amine] had an IC50 against MKNK1 [1] of 18 nM.

Compound `N[C@H](COc1ccc2ncc(-c3cc4ccccc4o3)n2n1)c1ccc(F)cc1` [Example 61, (1S)-2-{[3-(1-benzofuran-2-yl)imidazo[1,2-b]pyridazin-6-yl]oxy}-1-(4-fluorophenyl)ethanamine] displayed an IC50 on MKNK1 [2] of 29 nM.

In the case of `NCC(CN1CCOCC1)Oc1ccc2ncc(-c3cc4ccccc4o3)n2n1` (centres unmarked) [Example 31, 2-{[3-(1-Benzofuran-2-yl)imidazo[1,2-b]pyridazin-6-yl]oxy}-3-(morpholin-4-yl)-propan-1-amine], the half-maximal inhibitory concentration (IC50) at MKNK1 [1] is 78 nM. This lies in the double-digit nanomolar range.
